Laboratory results reported in patent US5696245A, “Fructofuranosyl substituted polymers and methods for their production” (The University of Montana, priority 1995, dated 1997).
Converted amounts (≈) assume the structure as drawn.

How the values were obtained:
[1] = Solubility of Estriol in water in presence of CD's and Fru-CD's; type: physicochemical
Protocol: (§1) The solubilities of 2 and 4 were determined as were their respective abilities to solubilize a slightly soluble drug.
Solubility of Estriol in Water in
Presence of CD's and Fru-CD's at 20° C.
Solubility in 1.5 × 10^-2 M CD

[2] = Solubility in water of CD's and Fru-CD's; type: physicochemical; conditions: 21° C. ± 1° C.
Protocol: as §1
^a determined at 21° C. ± 1° C.

invertase [3] = experiment: Hydrolysis by invertase; type: biochemical; conditions: conditions of complete sucrose hydrolysis in 30 minutes
Excerpt: (§2) No inhibition was manifested by the parent CD's. […] Furthermore, provided that the Fru-α-CD is capable of transport to regions of plants or of plant cells, where invertase action occurs, then it is a potent plant growth regulator.

invertase [4] = experiment: Inhibition of invertase (hydrolysis of sucrose); type: biochemical; conditions: for inhibition of invertase: 1:1 mole ratio with sucrose
Excerpt: Reference is now made to the drawings accompanying the application wherein the sole Figure is a graph showing the action of invertase on sucrose in the presence of cyclodextrins and fructosyl cyclodextrins.
as §2

## C[C@]12CC[C@@H]3c4ccc(O)cc4CC[C@H]3[C@@H]1C[C@@H](O)[C@@H]2O [Estriol, reference compound]
[1]; water without CD, 20° C.
  solubility: 0.023 mg/mL

## OC[C@H]1O[C@@](CO)(OC[C@H]2O[C@@H]3O[C@H]4[C@H](O)[C@@H](O)[C@@H](O[C@H]5[C@H](O)[C@@H](O)[C@@H](O[C@H]6[C@H](O)[C@@H](O)[C@@H](O[C@H]7[C@H](O)[C@@H](O)[C@@H](O[C@H]8[C@H](O)[C@@H](O)[C@@H](O[C@H]9[C@H](O)[C@@H](O)[C@@H](O[C@H]2[C@H](O)[C@H]3O)O[C@@H]9CO)O[C@@H]8CO)O[C@@H]7CO)O[C@@H]6CO)O[C@@H]5CO)O[C@@H]4CO)[C@@H](O)[C@@H]1O [compound 2, 6-O-(β-D-fructofuranosyl) cycloheptaamylose]
[2]
  Solubility in water: 1136 mg/mL (≈ 876 mM)
[1]; general description
  ability to solubilize sparingly soluble compounds by inclusion, vs parent cyclodextrins: increased ability to solubilize
Invertase [3]
  hydrolysis by invertase: unaffected by invertase
Invertase [4]
  inhibition of invertase: demonstrated inhibition of invertase

## OC[C@H]1O[C@@](CO)(OC[C@H]2O[C@@H]3O[C@H]4[C@H](O)[C@@H](O)[C@@H](O[C@H]5[C@H](O)[C@@H](O)[C@@H](O[C@H]6[C@H](O)[C@@H](O)[C@@H](O[C@H]7[C@H](O)[C@@H](O)[C@@H](O[C@H]8[C@H](O)[C@@H](O)[C@@H](O[C@H]2[C@H](O)[C@H]3O)O[C@@H]8CO)O[C@@H]7CO)O[C@@H]6CO)O[C@@H]5CO)O[C@@H]4CO)[C@@H](O)[C@@H]1O [compound 4, 6-O-(β-D-fructofuranosyl) cyclohexaamylose]
[2]
  Solubility in water: 1054 mg/mL (≈ 929 mM)
Invertase [3]
  hydrolysis by invertase: unaffected by invertase
Invertase [4]
  inhibition of invertase: to a much greater extent, 4 demonstrated inhibition of invertase
Invertase [4]; hydrolysis of sucrose by invertase, detailed kinetic study still required
  type of invertase inhibition: appears to be a non-reversible inhibitor

## OC[C@H]1O[C@@](CO)(O[C@H]2O[C@H](CO)[C@@H](O)[C@H](O)[C@H]2O)[C@@H](O)[C@@H]1O [sucrose, reference compound]
Invertase [3]
  hydrolysis by invertase: complete hydrolysis

## OC[C@H]1O[C@@H]2O[C@H]3[C@H](O)[C@@H](O)[C@@H](O[C@H]4[C@H](O)[C@@H](O)[C@@H](O[C@H]5[C@H](O)[C@@H](O)[C@@H](O[C@H]6[C@H](O)[C@@H](O)[C@@H](O[C@H]7[C@H](O)[C@@H](O)[C@@H](O[C@H]1[C@H](O)[C@H]2O)O[C@@H]7CO)O[C@@H]6CO)O[C@@H]5CO)O[C@@H]4CO)O[C@@H]3CO [α-CD, cyclohexaamylose, reference compound]
[2]
  Solubility in water: 126 mg/mL (≈ 130 mM)

## OC[C@H]1O[C@@H]2O[C@H]3[C@H](O)[C@@H](O)[C@@H](O[C@H]4[C@H](O)[C@@H](O)[C@@H](O[C@H]5[C@H](O)[C@@H](O)[C@@H](O[C@H]6[C@H](O)[C@@H](O)[C@@H](O[C@H]7[C@H](O)[C@@H](O)[C@@H](O[C@H]8[C@H](O)[C@@H](O)[C@@H](O[C@H]1[C@H](O)[C@H]2O)O[C@@H]8CO)O[C@@H]7CO)O[C@@H]6CO)O[C@@H]5CO)O[C@@H]4CO)O[C@@H]3CO [β-CD, cycloheptaamylose, reference compound]
[2]
  Solubility in water: 20 mg/mL (≈ 17.6 mM)
